# Reference: PubChem BioAssay AID250 (DTP/NCI, 2004)
# Values joined by “and” are separate entries in the source; they are usually repeats but may differ in a detail not shown here. Equal values may be shown once. Toxic doses and inconclusive results are not listed.
# Tested on: BDF1 mice, L1210 leukemia sc, survival T/C
# Assay: NCI In Vivo Anticancer Drug Screen. Data for tumor model L1210 Leukemia (subcutaneous) in B6D2F1 (BDF1) mice
# Settings: higher = longer survival
# Procedure: The antitumor activity of compounds was measured in mice bearing transplantable tumors. Survival or tumor size were measured and the results are expressed as the measurement made in the treated group (T) divided by the measurement made in the vehicle treated control group (C). The tumor model used in this assay is L1210 Leukemia (subcutaneous) in B6D2F1 (BDF1) mice
structure (smiles),measurement,setting,value
Nc1nncs1,T/C,"endpoint: median survival time, dose: 50.0 mg/kg/injection, schedule: Q04DX004 (sc), vehicle: water",111 % of control
same,T/C,"endpoint: median survival time, dose: 100.0 mg/kg/injection, schedule: Q04DX004 (sc), vehicle: water",101 % of control
same,T/C,"endpoint: median survival time, dose: 200.0 mg/kg/injection, schedule: Q04DX004 (sc), vehicle: water",106 % of control
same,T/C,"endpoint: median survival time, dose: 200.0 mg/kg/injection, schedule: Q08DX003 (sc), vehicle: water",101 % of control
same,T/C,"endpoint: median survival time, dose: 400.0 mg/kg/injection, schedule: Q04DX004 (sc), vehicle: water",111 % of control
same,T/C,"endpoint: median survival time, dose: 400.0 mg/kg/injection, schedule: Q08DX003 (sc), vehicle: water",108 % of control
same,T/C,"endpoint: median survival time, dose: 800.0 mg/kg/injection, schedule: Q08DX003 (sc), vehicle: water",109 % of control
same,T/C,"endpoint: median survival time, dose: 1600.0 mg/kg/injection, schedule: Q08DX003 (sc), vehicle: water",117 % of control
Cc1c(CNc2ccc(C(=O)NC(CC(=O)O)C(=O)O)cc2)ccc2nc(N)nc(N)c12 (stereo not drawn),T/C,"endpoint: median survival time, dose: 0.05 mg/kg/injection, schedule: Q01DX017 (sc), vehicle: sodium bicarbonate",116 % of control
same,T/C,"endpoint: median survival time, dose: 1.8 mg/kg/injection, schedule: Q04DX005 (sc), vehicle: sodium bicarbonate",229 % of control
same,T/C,"endpoint: median survival time, dose: 3.0 mg/kg/injection, schedule: Q04DX005 (sc), vehicle: sodium bicarbonate",233 % of control
same,T/C,"endpoint: median survival time, dose: 5.0 mg/kg/injection, schedule: Q04DX005 (sc), vehicle: sodium bicarbonate",170 % of control
same,T/C,"endpoint: median survival time, dose: 8.4 mg/kg/injection, schedule: Q04DX005 (sc), vehicle: sodium bicarbonate",150 % of control
same,T/C,"endpoint: median survival time, dose: 14.0 mg/kg/injection, schedule: Q01DX017 (sc), vehicle: sodium bicarbonate",95 % of control
same,T/C,"endpoint: median survival time, dose: 14.0 mg/kg/injection, schedule: Q04DX005 (sc), vehicle: sodium bicarbonate",116 % of control
same,T/C,"endpoint: median survival time, dose: 23.0 mg/kg/injection, schedule: Q01DX017 (sc), vehicle: sodium bicarbonate",87 % of control
[I][Hg][CH2]C1COC([CH2][Hg][I])CO1 (stereo not drawn),T/C,"endpoint: median survival time, dose: 14.0 mg/kg/injection, schedule: Q01DX Z (sc), vehicle: other",100 % of control
same,T/C,"endpoint: median survival time, dose: 23.0 mg/kg/injection, schedule: Q01DX Z (sc), vehicle: other",100 % of control
same,T/C,"endpoint: median survival time, dose: 39.0 mg/kg/injection, schedule: Q01DX Z (sc), vehicle: other",105 % of control
same,T/C,"endpoint: median survival time, dose: 65.0 mg/kg/injection, schedule: Q01DX Z (sc), vehicle: other",100 % of control
same,T/C,"endpoint: median survival time, dose: 108.0 mg/kg/injection, schedule: Q01DX Z (sc), vehicle: other",111 % of control
CC1CCC(NC(=O)N(CCCl)N=O)CC1 (stereo not drawn),T/C,"endpoint: median survival time, dose: 5.0 mg/kg/injection, schedule: Q03HX008 (sc), vehicle: saline",322 % of control and 333 % of control
same,T/C,"endpoint: median survival time, dose: 6.25 mg/kg/injection, schedule: Q04DX008 (sc), vehicle: saline",681 % of control and 690 % of control
same,T/C,"endpoint: median survival time, dose: 12.5 mg/kg/injection, schedule: Q01DX001 (sc), vehicle: saline",120 % of control
same,T/C,"endpoint: median survival time, dose: 12.5 mg/kg/injection, schedule: Q04DX008 (sc), vehicle: saline",370 % of control and 403 % of control
same,T/C,"endpoint: median survival time, dose: 25.0 mg/kg/injection, schedule: Q04DX008 (sc), vehicle: saline",119 % of control and 120 % of control
same,T/C,"endpoint: median survival time, dose: 50.0 mg/kg/injection, schedule: Q04DX001 (sc), vehicle: saline",215 % of control and 257 % of control
same,T/C,"endpoint: median survival time, dose: 50.0 mg/kg/injection, schedule: Q04DX008 (sc), vehicle: saline",104 % of control and 105 % of control
same,T/C,"endpoint: median survival time, dose: 100.0 mg/kg/injection, schedule: Q04DX001 (sc), vehicle: saline",230 % of control
same,T/C,"endpoint: median survival time, dose: 200.0 mg/kg/injection, schedule: Q04DX001 (sc), vehicle: saline",120 % of control and 121 % of control
same,T/C,"endpoint: median survival time, dose: 400.0 mg/kg/injection, schedule: Q04DX001 (sc), vehicle: saline",150 % of control and 151 % of control
CN(N=O)C(N)=O,T/C,"endpoint: median survival time, dose: 0.75 mg/kg/injection, schedule: Q01DX009 (ip), vehicle: saline",100 % of control
same,T/C,"endpoint: median survival time, dose: 1.5 mg/kg/injection, schedule: Q01DX009 (ip), vehicle: saline",100 % of control
same,T/C,"endpoint: median survival time, dose: 3.0 mg/kg/injection, schedule: Q01DX009 (ip), vehicle: saline",105 % of control
same,T/C,"endpoint: median survival time, dose: 6.0 mg/kg/injection, schedule: Q01DX009 (ip), vehicle: saline",120 % of control
same,T/C,"endpoint: median survival time, dose: 14.0 mg/kg/injection, schedule: Q01DX Z (sc), vehicle: saline",111 % of control
same,T/C,"endpoint: median survival time, dose: 23.0 mg/kg/injection, schedule: Q01DX Z (sc), vehicle: saline",100 % of control and 111 % of control
same,T/C,"endpoint: median survival time, dose: 31.1 mg/kg/injection, schedule: Q01DX Z (sc), vehicle: saline",122 % of control
same,T/C,"endpoint: median survival time, dose: 65.0 mg/kg/injection, schedule: Q01DX Z (sc), vehicle: saline",155 % of control
same,T/C,"endpoint: median survival time, dose: 86.4 mg/kg/injection, schedule: Q01DX Z (sc), vehicle: saline",118 % of control
same,T/C,"endpoint: median survival time, dose: 108.0 mg/kg/injection, schedule: Q01DX Z (sc), vehicle: saline",118 % of control and 120 % of control
same,T/C,"endpoint: median survival time, dose: 144.0 mg/kg/injection, schedule: Q01DX Z (sc), vehicle: saline",109 % of control
same,T/C,"endpoint: median survival time, dose: 180.0 mg/kg/injection, schedule: Q01DX Z (sc), vehicle: saline",100 % of control and 120 % of control
O=C(O)c1ccc([N+](=O)[O-])cc1,T/C,"endpoint: median survival time, dose: 23.0 mg/kg/injection, schedule: Q01DX Z (sc), vehicle: methylcellulose (MC)",104 % of control
O=c1[nH]c(=S)c2[nH]c(=O)[nH]c2[nH]1,T/C,"endpoint: median survival time, dose: 3.0 mg/kg/injection, schedule: Q01DX Z (sc), vehicle: methylcellulose (MC)",100 % of control
same,T/C,"endpoint: median survival time, dose: 5.0 mg/kg/injection, schedule: Q01DX Z (sc), vehicle: methylcellulose (MC)",100 % of control
c1ccc(CNc2ncnc3[nH]ncc23)cc1,T/C,"endpoint: median survival time, dose: 23.3 mg/kg/injection, schedule: Q01DX Z (sc), vehicle: methylcellulose (MC)",115 % of control
same,T/C,"endpoint: median survival time, dose: 64.8 mg/kg/injection, schedule: Q01DX Z (sc), vehicle: methylcellulose (MC)",120 % of control
same,T/C,"endpoint: median survival time, dose: 108.0 mg/kg/injection, schedule: Q01DX Z (sc), vehicle: methylcellulose (MC)",110 % of control
same,T/C,"endpoint: median survival time, dose: 180.0 mg/kg/injection, schedule: Q01DX Z (sc), vehicle: methylcellulose (MC)",110 % of control
same,T/C,"endpoint: median survival time, dose: 300.0 mg/kg/injection, schedule: Q01DX Z (sc), vehicle: methylcellulose (MC)",100 % of control
same,T/C,"endpoint: median survival time, dose: 500.0 mg/kg/injection, schedule: Q01DX Z (sc), vehicle: methylcellulose (MC)",100 % of control
N[C@H](C(=O)O)[C@H]1ON=C(Cl)[C@@H]1O,T/C,"endpoint: median survival time, dose: 8.0 mg/kg/injection, schedule: Q01DX009 (sc), vehicle: saline",111 % of control
same,T/C,"endpoint: median survival time, dose: 32.0 mg/kg/injection, schedule: Q01DX009 (sc), vehicle: saline",150 % of control and 156 % of control
same,T/C,"endpoint: median survival time, dose: 64.0 mg/kg/injection, schedule: Q01DX009 (sc), vehicle: saline",153 % of control and 156 % of control
same,T/C,"endpoint: median survival time, dose: 128.0 mg/kg/injection, schedule: Q01DX009 (sc), vehicle: saline",156 % of control and 160 % of control
same,T/C,"endpoint: median survival time, dose: 256.0 mg/kg/injection, schedule: Q01DX009 (sc), vehicle: saline",157 % of control and 176 % of control
same,T/C,"endpoint: median survival time, dose: 512.0 mg/kg/injection, schedule: Q01DX009 (sc), vehicle: saline",176 % of control
same,T/C,"endpoint: median survival time, dose: 1024.0 mg/kg/injection, schedule: Q01DX009 (sc), vehicle: saline",177 % of control
ClCCN(CCCl)CCNc1ccnc2cc(Cl)ccc12,T/C,"endpoint: median survival time, dose: 1.08 mg/kg/injection, schedule: Q01DX Z (sc), vehicle: water",100 % of control
same,T/C,"endpoint: median survival time, dose: 8.4 mg/kg/injection, schedule: Q01DX Z (sc), vehicle: water",100 % of control
same,T/C,"endpoint: median survival time, dose: 23.0 mg/kg/injection, schedule: Q01DX Z (sc), vehicle: water",100 % of control
same,T/C,"endpoint: median survival time, dose: 39.0 mg/kg/injection, schedule: Q01DX Z (sc), vehicle: water",100 % of control
same,T/C,"endpoint: median survival time, dose: 65.0 mg/kg/injection, schedule: Q01DX Z (sc), vehicle: olive oil, sesame oil, peanut oil",100 % of control
COc1cc(NS(C)(=O)=O)ccc1Nc1c2cccc(C)c2nc2c(C)cccc12,T/C,"endpoint: mean survival time, dose: 6.25 mg/kg/injection, schedule: Q01DX009 (ip), vehicle: Klucel (hydroxypropylcellulose) (HPC)",100 % of control
same,T/C,"endpoint: mean survival time, dose: 12.5 mg/kg/injection, schedule: Q01DX009 (ip), vehicle: Klucel (hydroxypropylcellulose) (HPC)",103 % of control
same,T/C,"endpoint: mean survival time, dose: 25.0 mg/kg/injection, schedule: Q01DX009 (ip), vehicle: Klucel (hydroxypropylcellulose) (HPC)",102 % of control
same,T/C,"endpoint: mean survival time, dose: 50.0 mg/kg/injection, schedule: Q01DX009 (ip), vehicle: Klucel (hydroxypropylcellulose) (HPC)",103 % of control
C[n+]1ccc(Nc2ccc(NC(=O)c3ccc(Nc4cc[n+](C)c5ccc(N)cc45)cc3)cc2)cc1,T/C,"endpoint: median survival time, dose: 0.5 mg/kg/injection, schedule: Q01DX009 (ip), vehicle: Klucel (hydroxypropylcellulose) (HPC)",100 % of control
same,T/C,"endpoint: median survival time, dose: 1.0 mg/kg/injection, schedule: Q01DX009 (ip), vehicle: Klucel (hydroxypropylcellulose) (HPC)",110 % of control
same,T/C,"endpoint: median survival time, dose: 2.0 mg/kg/injection, schedule: Q01DX009 (ip), vehicle: Klucel (hydroxypropylcellulose) (HPC)",182 % of control
same,T/C,"endpoint: median survival time, dose: 4.0 mg/kg/injection, schedule: Q01DX009 (ip), vehicle: Klucel (hydroxypropylcellulose) (HPC)",250 % of control
same,T/C,"endpoint: median survival time, dose: 8.0 mg/kg/injection, schedule: Q01DX009 (ip), vehicle: Klucel (hydroxypropylcellulose) (HPC)",291 % of control
